Source: PMC12596500, “Affinity-selected peptide ligands specifically bind i-motif DNA and modulate c-Myc gene expression” (Nucleic Acids Research, 2025)
Peptide text beside a SMILES is read from it.

What was measured:
[1] = Solubility and aggregation state seen by NMR; assay type: physicochemical; settings: one equivalent of peptide to 50 µM c-MycC52, 10 mM sodium cacodylate pH 6.6, 10% D2O, 283 K, read-out 1H NMR
Protocol: (§1) NMR: ^1H NMR spectra of c-MycC52 were recorded at 283 K using a Bruker Avance NEO 600 MHz spectrometer equipped with QCI-F cryoprobe operating Topspin 4.5.0. Spectra were recorded with excitation sculpting, at 27.75 ppm spectral width, 1 s acquisition time, and 1 s recycle delay. Spectra of the imino proton region were acquired with a 1D SOFAST excitation scheme with a 1293 μs Pc9_4_120 excitation pulse and 720 μs Reburp refocusing pulse, centred at 13 ppm, a 29.75 ppm spectral width, 115 ms acquisition time, and 100 ms recycle delay. Samples were annealed at a final concentration of 50 µM in 10 mM sodium cacodylate (pH 6.6). 10% D2O and 0.01% sodium trimethylsilylpropanesulfonate (DSS) were added immediately before recording NMR spectra experiments. Spectra were processed with exponential line broadening and referenced to the Sodium trimethylsilylpropanesulfonate (DSS) chemical shift. The chemical shift of the cacodylate buffer resonance was used to monitor potential pH changes between samples.
(§2) Given the selectivity of the Pep-PTN and Pep-VSE peptides for the c-Myc iM structure, both in the binding experiments and also the in vitro gene assays, we considered potential binding modes. We recorded NMR spectra of the c-MycC52 oligonucleotide in the presence and absence of Pep-VSE to give insights into potential binding sites (Supplementary Figs S17–S20). […]

c-MycC52 = test: 1H NMR of c-MycC52 with peptide; assay type: binding; settings: 50 µM c-MycC52, one equivalent of peptide, 10 mM sodium cacodylate pH 6.6, 10% D2O, 283 K, 600 MHz
Protocol: as §1, §2

CC(=O)N[C@H](C(=O)N[C@@H](CO)C(=O)N[C@@H](CCC(=O)O)C(=O)N[C@@H](C)C(=O)N[C@@H](Cc1c[nH]c2ccccc12)C(=O)N[C@@H](CCCCN)C(=O)N[C@@H](CCC(=O)O)C(=O)N[C@H](C(=O)N[C@@H](CCCCN)C(=O)NCC(=O)N[C@@H](Cc1ccccc1)C(=O)N[C@@H](Cc1ccccc1)C(N)=O)C(C)C)C(C)C [Pep-VSE] (Ac-VSEAWKEVKGFF-NH2)
solubility and aggregation state of the peptide (NMR) [1]: soluble and not aggregated
effect on imino resonances of c-MycC52 (NMR) (c-MycC52): no perturbations to imino resonances
